Test results reported in ChEMBL document CHEMBL4152312, “Identification of fused pyrimidines as interleukin 17 secretion inhibitors” (Eur J Med Chem, 2018).

Experiments:
[1] = molecular target: Tyrosine-protein kinase Lyn (Homo sapiens) (UniProt P07948); assay: Inhibition of recombinant human full-length N-terminal His-tagged LYN-B expressed in baculovirus expression system at 500 nM by Z-LYTE assay relative to control
PBMC [2] = assay: Inhibition of IL-17 secretion in anti-human CD3 antibody/anti-human CD28 antibody/IL23-stimulated human PBMC after 48 hrs by ELISA; type: functional, cell-based
PBMC [3] = assay: Inhibition of IL-5 secretion in anti-human CD3 antibody/anti-human CD28 antibody/IL23-stimulated human PBMC after 48 hrs by ELISA; type: functional, cell-based
[4] = molecular target: RAC-alpha serine/threonine-protein kinase (Homo sapiens) (UniProt P31749); assay: Inhibition of recombinant human full length His-tagged AKT1 expressed in baculovirus expression system at 500 nM by Z-LYTE assay relative to control
[5] = molecular target: Calcium/calmodulin-dependent protein kinase type 1G (Homo sapiens) (UniProt Q96NX5); assay: Inhibition of recombinant human full length GST-tagged CAMK1G expressed in insect cells at 500 nM by Z-LYTE assay relative to control
Sequence of Calcium/calmodulin-dependent protein kinase type 1G (Homo sapiens) (Q96NX5 whole entry, the tested form may be a part): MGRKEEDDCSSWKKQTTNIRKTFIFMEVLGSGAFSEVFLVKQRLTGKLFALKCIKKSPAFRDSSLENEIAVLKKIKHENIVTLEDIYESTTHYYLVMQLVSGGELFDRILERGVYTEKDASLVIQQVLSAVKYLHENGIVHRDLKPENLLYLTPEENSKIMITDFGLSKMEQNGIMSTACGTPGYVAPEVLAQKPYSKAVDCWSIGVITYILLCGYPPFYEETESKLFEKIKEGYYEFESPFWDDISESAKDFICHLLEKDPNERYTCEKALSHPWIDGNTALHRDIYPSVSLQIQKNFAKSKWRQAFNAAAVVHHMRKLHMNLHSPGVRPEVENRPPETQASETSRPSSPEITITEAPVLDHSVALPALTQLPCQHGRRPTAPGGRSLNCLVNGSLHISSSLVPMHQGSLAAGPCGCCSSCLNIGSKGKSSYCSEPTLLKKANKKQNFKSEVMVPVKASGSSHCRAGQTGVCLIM

[6] = molecular target: Receptor tyrosine-protein kinase erbB-2 (Homo sapiens) (UniProt P04626); assay: Inhibition of recombinant human His-tagged ERBB2 cytoplasmic domain expressed in baculovirus expression system at 500 nM by Z-LYTE assay relative to control
[7] = molecular target: T1, Inhibitor of nuclear factor kappa-B kinase subunit epsilon (Homo sapiens) (UniProt Q14164); assay: Inhibition of recombinant full-length human GST-tagged IKKepsilon expressed in baculovirus expression system at 500 nM by Z-LYTE assay relative to control
T1 sequence (whole entry): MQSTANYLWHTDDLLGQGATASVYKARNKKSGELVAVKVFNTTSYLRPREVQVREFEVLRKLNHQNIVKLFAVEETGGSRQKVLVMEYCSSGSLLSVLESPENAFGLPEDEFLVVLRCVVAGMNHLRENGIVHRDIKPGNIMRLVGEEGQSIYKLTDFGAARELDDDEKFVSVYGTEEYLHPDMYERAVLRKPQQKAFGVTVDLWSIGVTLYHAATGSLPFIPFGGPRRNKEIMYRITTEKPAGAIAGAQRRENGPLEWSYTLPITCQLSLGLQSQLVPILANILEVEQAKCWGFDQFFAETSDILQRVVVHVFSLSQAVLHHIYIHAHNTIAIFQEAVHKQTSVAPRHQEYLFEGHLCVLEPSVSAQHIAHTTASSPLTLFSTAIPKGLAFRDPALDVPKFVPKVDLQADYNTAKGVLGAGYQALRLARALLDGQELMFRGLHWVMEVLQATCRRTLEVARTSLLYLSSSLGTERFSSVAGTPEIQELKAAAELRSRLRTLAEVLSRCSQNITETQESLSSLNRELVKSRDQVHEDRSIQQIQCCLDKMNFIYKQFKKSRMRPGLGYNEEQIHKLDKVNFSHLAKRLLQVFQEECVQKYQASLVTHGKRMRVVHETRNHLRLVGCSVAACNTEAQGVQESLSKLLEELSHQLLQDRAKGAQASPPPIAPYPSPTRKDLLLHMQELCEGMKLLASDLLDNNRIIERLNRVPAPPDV

[8] = molecular target: Tyrosine-protein kinase Lyn (Homo sapiens) (UniProt P07948); assay: Inhibition of recombinant human full-length N-terminal GST-tagged LYN-A expressed in insect cells at 500 nM by Z-LYTE assay relative to control
[9] = molecular target: Mitogen-activated protein kinase 14 (Homo sapiens) (UniProt Q16539); assay: Inhibition of recombinant human full length His-tagged p38-alpha expressed in baculovirus expression system at 500 nM by Z-LYTE assay relative to control
Sequence of Mitogen-activated protein kinase 14 (Homo sapiens) (Q16539 whole entry): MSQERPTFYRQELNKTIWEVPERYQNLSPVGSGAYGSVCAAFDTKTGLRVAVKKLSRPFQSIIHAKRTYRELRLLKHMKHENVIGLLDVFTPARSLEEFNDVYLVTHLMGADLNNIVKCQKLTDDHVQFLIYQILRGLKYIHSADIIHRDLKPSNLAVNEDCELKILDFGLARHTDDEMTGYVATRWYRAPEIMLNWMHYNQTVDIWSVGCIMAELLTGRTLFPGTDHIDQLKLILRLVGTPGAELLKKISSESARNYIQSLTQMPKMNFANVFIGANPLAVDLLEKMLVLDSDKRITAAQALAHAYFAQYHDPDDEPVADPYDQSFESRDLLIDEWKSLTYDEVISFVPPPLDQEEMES

[10] = molecular target: Mitogen-activated protein kinase 3 (Homo sapiens) (UniProt P27361); assay: Inhibition of recombinant human full length GST-tagged ERK1 expressed in Escherichia coli at 500 nM by Z-LYTE assay relative to control
[11] = molecular target: Serine/threonine-protein kinase PAK 2 (Homo sapiens) (UniProt Q13177); assay: Inhibition of recombinant human full length GST-tagged PAK2 expressed in baculovirus expression system at 500 nM by Z-LYTE assay relative to control
Sequence of Serine/threonine-protein kinase PAK 2 (Homo sapiens) (Q13177 whole entry, the tested form may be a part): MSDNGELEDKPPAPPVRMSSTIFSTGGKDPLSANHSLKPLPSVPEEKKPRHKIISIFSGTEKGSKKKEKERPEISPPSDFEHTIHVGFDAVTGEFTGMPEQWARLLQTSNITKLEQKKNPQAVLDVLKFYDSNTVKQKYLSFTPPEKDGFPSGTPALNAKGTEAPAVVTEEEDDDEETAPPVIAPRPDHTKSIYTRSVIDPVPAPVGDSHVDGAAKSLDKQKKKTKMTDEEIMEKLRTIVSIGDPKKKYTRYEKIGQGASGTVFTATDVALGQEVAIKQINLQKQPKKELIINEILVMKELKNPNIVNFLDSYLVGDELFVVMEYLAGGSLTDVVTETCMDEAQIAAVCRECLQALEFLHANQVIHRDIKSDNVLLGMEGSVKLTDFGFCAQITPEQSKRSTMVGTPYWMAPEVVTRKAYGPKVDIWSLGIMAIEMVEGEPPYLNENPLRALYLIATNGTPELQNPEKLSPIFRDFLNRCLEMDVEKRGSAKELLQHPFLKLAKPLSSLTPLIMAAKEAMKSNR

[12] = molecular target: Platelet-derived growth factor receptor beta (Homo sapiens) (UniProt P09619); assay: Inhibition of recombinant human His-tagged PDGFRbeta cytoplasmic domain expressed in baculovirus expression system at 500 nM by Z-LYTE assay relative to control
[13] = molecular target: PI3-kinase p110-alpha/p85-alpha (Homo sapiens) (UniProt P27986+P42336); assay: Inhibition of recombinant full length human His-tagged PI3K p110alpha/p85alpha at 500 nM by Z-LYTE assay relative to control; type: protein-complex assay
[14] = molecular target: Protein kinase C alpha type (Homo sapiens) (UniProt P17252); assay: Inhibition of recombinant human full length untagged PKCalpha expressed in baculovirus expression system at 500 nM by Z-LYTE assay relative to control
[15] = molecular target: Protein kinase C beta type (Homo sapiens) (UniProt P05771); assay: Inhibition of recombinant full length human GST-tagged PKCbeta-1 expressed in insect cells at 500 nM by Z-LYTE assay relative to control
Sequence of Protein kinase C beta type (Homo sapiens) (P05771 2-671 limits assumed): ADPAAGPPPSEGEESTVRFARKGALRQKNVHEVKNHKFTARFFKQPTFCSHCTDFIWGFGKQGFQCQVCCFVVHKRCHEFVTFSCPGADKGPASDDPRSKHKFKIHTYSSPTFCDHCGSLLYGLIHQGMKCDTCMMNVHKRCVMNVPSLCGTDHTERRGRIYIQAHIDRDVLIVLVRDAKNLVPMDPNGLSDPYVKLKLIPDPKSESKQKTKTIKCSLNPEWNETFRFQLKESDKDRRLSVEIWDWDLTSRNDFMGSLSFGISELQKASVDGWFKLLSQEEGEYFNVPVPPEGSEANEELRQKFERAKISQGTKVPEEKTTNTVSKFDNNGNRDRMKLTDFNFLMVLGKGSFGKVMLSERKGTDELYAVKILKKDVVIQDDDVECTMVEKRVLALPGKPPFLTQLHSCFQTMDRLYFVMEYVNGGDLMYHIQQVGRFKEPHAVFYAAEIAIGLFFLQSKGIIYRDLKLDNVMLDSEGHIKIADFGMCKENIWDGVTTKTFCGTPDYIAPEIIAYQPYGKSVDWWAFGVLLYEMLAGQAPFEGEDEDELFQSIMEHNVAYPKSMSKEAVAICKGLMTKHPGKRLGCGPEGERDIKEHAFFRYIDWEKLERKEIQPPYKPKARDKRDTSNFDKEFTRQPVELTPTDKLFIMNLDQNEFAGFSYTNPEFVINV

[16] = molecular target: Protein kinase C theta type (Homo sapiens) (UniProt Q04759); assay: Inhibition of recombinant full length human His-tagged PKCtheta expressed in baculovirus expression system at 500 nM by Z-LYTE assay relative to control
Sequence of Protein kinase C theta type (Homo sapiens) (Q04759 whole entry, looked up, the tested form may be a part): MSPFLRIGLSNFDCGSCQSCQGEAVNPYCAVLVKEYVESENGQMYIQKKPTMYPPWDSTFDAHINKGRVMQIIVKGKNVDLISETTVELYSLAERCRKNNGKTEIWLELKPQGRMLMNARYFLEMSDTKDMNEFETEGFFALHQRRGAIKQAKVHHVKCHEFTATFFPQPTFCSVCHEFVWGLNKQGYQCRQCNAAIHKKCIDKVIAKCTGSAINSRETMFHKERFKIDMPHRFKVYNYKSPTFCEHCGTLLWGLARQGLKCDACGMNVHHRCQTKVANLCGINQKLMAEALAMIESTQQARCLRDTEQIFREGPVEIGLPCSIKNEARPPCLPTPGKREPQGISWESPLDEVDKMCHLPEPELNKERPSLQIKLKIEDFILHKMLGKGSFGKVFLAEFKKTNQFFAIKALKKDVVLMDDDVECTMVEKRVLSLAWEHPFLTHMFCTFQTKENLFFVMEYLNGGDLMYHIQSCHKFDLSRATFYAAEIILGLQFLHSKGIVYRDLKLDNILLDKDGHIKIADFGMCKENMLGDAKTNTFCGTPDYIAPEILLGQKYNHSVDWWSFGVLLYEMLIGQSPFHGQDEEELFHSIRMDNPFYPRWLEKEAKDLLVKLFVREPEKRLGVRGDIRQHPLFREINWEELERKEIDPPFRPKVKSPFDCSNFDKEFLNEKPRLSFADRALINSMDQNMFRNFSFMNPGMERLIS

[17] = molecular target: Proto-oncogene tyrosine-protein kinase ROS (Homo sapiens) (UniProt P08922); assay: Inhibition of recombinant human GST-tagged ROS1 cytoplasmic domain (1883 to 2347 residues) expressed in baculovirus expression system at 500 nM by Z-LYTE assay relative to control
Sequence of Proto-oncogene tyrosine-protein kinase ROS (Homo sapiens) (P08922 whole entry, the tested form may be a part): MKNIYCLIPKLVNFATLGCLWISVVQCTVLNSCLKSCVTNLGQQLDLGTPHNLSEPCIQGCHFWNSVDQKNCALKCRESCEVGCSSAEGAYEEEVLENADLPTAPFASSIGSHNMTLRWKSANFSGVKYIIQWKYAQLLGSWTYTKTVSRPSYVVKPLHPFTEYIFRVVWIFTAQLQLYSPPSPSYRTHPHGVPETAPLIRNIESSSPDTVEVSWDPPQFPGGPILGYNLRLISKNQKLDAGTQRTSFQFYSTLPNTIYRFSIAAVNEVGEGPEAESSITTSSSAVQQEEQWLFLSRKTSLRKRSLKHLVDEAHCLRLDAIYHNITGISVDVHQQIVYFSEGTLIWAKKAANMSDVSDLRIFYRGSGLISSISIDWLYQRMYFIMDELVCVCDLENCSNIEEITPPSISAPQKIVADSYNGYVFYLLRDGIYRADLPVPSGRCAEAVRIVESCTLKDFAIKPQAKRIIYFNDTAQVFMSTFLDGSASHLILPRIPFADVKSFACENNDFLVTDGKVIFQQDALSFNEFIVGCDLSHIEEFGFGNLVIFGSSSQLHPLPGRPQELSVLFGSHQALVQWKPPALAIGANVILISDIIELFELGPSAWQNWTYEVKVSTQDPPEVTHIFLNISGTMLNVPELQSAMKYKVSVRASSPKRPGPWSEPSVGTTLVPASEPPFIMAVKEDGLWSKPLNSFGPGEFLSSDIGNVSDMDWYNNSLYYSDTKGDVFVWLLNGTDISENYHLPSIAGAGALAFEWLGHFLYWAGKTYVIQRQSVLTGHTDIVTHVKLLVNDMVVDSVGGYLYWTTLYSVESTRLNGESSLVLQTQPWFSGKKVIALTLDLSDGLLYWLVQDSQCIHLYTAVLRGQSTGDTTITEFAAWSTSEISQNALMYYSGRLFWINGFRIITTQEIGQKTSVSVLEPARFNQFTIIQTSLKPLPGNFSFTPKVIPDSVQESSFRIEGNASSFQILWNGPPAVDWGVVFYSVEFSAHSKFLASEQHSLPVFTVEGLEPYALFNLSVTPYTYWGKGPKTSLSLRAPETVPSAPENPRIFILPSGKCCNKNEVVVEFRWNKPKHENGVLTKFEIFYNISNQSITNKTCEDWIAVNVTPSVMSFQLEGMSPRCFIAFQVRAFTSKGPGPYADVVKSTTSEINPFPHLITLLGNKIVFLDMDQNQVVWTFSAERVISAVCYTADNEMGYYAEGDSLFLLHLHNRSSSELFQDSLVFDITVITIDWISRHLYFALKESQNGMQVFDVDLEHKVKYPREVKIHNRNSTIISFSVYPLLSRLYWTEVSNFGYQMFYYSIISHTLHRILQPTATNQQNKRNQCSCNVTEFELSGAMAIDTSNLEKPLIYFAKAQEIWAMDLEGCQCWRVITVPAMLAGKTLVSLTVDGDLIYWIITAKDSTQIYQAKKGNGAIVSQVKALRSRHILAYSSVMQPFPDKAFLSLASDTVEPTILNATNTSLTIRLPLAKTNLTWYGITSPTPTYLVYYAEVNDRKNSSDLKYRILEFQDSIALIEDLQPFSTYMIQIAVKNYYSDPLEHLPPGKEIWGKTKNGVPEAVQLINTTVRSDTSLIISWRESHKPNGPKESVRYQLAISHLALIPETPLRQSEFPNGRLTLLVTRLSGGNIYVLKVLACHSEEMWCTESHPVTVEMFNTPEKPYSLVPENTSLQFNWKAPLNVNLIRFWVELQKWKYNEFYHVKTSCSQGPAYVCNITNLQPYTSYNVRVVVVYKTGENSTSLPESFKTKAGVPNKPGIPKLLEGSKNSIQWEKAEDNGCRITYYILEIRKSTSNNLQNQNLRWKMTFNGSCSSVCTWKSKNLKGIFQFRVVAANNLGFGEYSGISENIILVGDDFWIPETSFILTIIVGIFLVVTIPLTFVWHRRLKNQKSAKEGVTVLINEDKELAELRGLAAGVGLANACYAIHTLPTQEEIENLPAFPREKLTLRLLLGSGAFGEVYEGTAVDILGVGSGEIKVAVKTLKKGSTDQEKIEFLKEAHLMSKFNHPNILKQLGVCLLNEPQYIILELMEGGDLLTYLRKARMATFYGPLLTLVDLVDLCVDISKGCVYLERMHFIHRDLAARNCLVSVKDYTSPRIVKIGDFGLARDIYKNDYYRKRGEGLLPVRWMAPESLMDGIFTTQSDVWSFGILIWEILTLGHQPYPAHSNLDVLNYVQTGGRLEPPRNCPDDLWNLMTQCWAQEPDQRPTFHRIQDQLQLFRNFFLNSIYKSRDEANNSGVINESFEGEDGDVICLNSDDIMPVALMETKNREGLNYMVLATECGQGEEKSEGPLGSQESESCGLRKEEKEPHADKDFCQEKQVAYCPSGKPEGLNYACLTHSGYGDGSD

[18] = molecular target: Nuclear receptor ROR-gamma (Homo sapiens, UniProt P51449); assay: Antagonist activity at GAL4-DBD fused human RORgamma LBD expressed in HEK293 cells after 18 hrs by luciferase reporter gene assay; type: cell-based
[19] = molecular target: Luciferin 4-monooxygenase (Photinus pyralis, UniProt P08659); assay: Inhibition of firefly luciferase activity expressed in HEK293 cells after 18 hrs by luminescence assay; type: cell-based

Row | Structure (SMILES) | inhibition [1] | IC50 (PBMC [2]) | IC50 (PBMC [3]) | inhibition [4] | inhibition [5] | inhibition [6] | inhibition [7] | inhibition [8] | inhibition [9] | inhibition [10] | inhibition [11] | inhibition [12] | inhibition [13] | inhibition [14] | inhibition [15] | inhibition [16] | inhibition [17] | IC50 [18] | IC50 [19]
1 | OC[C@@H](Nc1ncnc2sc(-c3ccc(O)cc3)cc12)c1ccccc1 | 7% | 2.8 µM | 13 to 13.1 µM | -1% | 1% | 30% | -1% | 21% | 8% | 6% | 5% | 1% | 16% | 0% | -9% | -7% | 23% | – | –
2 | OCc1ccc(-c2cc3c(N[C@H](CO)c4ccccc4)ncnc3[nH]2)cc1 | 70% | 1.4 µM | 1.1 µM | -4% | 0% | 48% | 3% | 74% | 17% | 3% | 5% | 7% | – | 6% | -1% | -2% | 71% | – | –
3 | CN(C)CCn1cc(-c2cccc(O)c2)c2c(N)ncnc21 | 49% | 1.2 µM | – | 0% | 1% | 5% | 3% | 28% | 8% | 0% | 6% | 5% | – | 15% | 8% | 8% | 15% | > 10 µM | > 10 µM
4 | CCC(=O)Nc1ccc(-c2c[nH]c3ncnc(N[C@H](C)c4ccccc4)c23)cc1 | 27% | 2.1 µM | – | -4% | 1% | 41% | -2% | 14% | 3% | 0% | 5% | 5% | – | 21% | 14% | 6% | 22% | 4.9 µM | 9.1 µM
